Legend:
[1] = Moisture sorption/desorption (VTI SGA-100 moisture balance); assay type: physicochemical; conditions: for hygroscopicity (in words): 5 to 95% RH; for Weight % chg: 25 deg C
Excerpt: The samples were not dried prior to analysis.

[2] = Storage of Form B in a closed vial, XRPD pattern compared; assay type: physicochemical; conditions: 31 days, ambient conditions
Protocol: X-ray powder diffraction analyses were carried out on a Shimadzu XRD-6000 X-ray powder diffractometer using Cu Kα radiation having a wavelength of 1.5406 Å. The instrument is equipped with a fine-focus X-ray tube. The tube power was set by setting potential difference at 40 kV, and current 40 mA. The divergence and scattering slits were set at 1° and the receiving slit was set at 0.15 mm. Diffracted radiation was detected by a NaI scintillation detector. A theta-two theta continuous scan at 3°/min (0.4 sec/0.02° step) from 2.5 to 40 °2 θ was performed. A silicon standard was analyzed each day to check the instrument alignment. Each sample was analyzed in a quartz sample holder. A variable temperature (VT-XRPD) experiment was performed on one form. The sample was prepared for analysis by pressing it into a variable temperature holder. A powder pattern was collected initially at 35° C. and again, after heating, at 200° C.

[3] = Dehydration/desolvation under vacuum, XRPD compared; assay type: physicochemical
Protocol: Dehydration/desolvation studies were conducted by placing a sample under continuous vacuum at room temperature for 14 days. An XRPD pattern was obtained on the remaining solid and compared to the starting material.

human tumor xenografts = conditions: nude mice; cited from earlier work
[4] = cited from earlier work
[5] = start, elapsed time 0.0 min, sample not dried

In the case of `CC[C@@]1(O)C(=O)OCc2c1cc1n(c2=O)Cc2cc3c([N+](=O)[O-])cccc3nc2-1` [Form B, 9-nitrocamptothecin], the “hygroscopicity (in words)” value [1] is reported as “relatively hygroscopic”, the Weight % chg [1, 5] is reported as 0.0000% and the “stability of the crystalline polymorph on storage (XRPD pattern unchanged)” value [2] is reported as “relatively stable”.

For `CC[C@@]1(O)C(=O)OCc2c1cc1n(c2=O)Cc2cc3c([N+](=O)[O-])cccc3nc2-1` [Form A, 9-nitrocamptothecin], the “hygroscopicity (in words)” value [1] was “not hygroscopic”, the Weight % chg ([1]; sorption, about 35% RH) was 0.0210% and the Weight % chg [1, 5] was 0.0000%.

With `CC[C@@]1(O)C(=O)OCc2c1cc1n(c2=O)Cc2cc3c([N+](=O)[O-])cccc3nc2-1` [Form C, 9-nitrocamptothecin] the “result of attempt to desolvate under vacuum” value [3] was “becomes amorphous”.

For `CC[C@@]1(O)C(=O)OCc2c1cc1n(c2=O)Cc2cc3c([N+](=O)[O-])cccc3nc2-1` [9-nitrocamptothecin, 9-nitro-20(S)-camptothecin], the “regression of human tumors established as xenografts” value (human tumor xenografts) is listed as “induced regression”.

In the case of `CC[C@@](O)(C(=O)[O-])c1cc2n(c(=O)c1CO)Cc1cc3ccccc3nc1-2.[Na+]` [Sodium camptothecin], the unpredictable side effects ([4]; administered intravenously) is listed as “myelosuppression and hemorrhagic cystitis” and the “activity in clinical trials” value ([4]; solubilized by sodium hydroxide in water, intravenous) is listed as “antineoplastic activity”.
